# Test results reported in publication PMC3445516 (PLoS ONE, 2012).
# Experiments:
# Assay in all cases: Ambit kinase profiling, competition binding
# [1] = target: T1, ABL1 (Homo sapiens, UniProt P00519); conditions: compound concentration 10 uM, read-out: Percent Competition
# T1 construct: purchased Ambit Biosciences (KINOMEscan)
# Excerpt: (§1) Supplement pone.0044653.s004.xls, sheet "Compound 122" | column: Percent Competition
# [2] = target: T2, ABL1(M351T) (Homo sapiens, UniProt P00519, M351T); conditions: compound concentration 10 uM, read-out: Percent Competition
# T2 construct: purchased Ambit Biosciences (KINOMEscan)
# Excerpt: as §1
# [3] = target: T3, AMPK-alpha1 (Homo sapiens, UniProt Q13131); conditions: compound concentration 10 uM, read-out: Percent Competition
# T3 construct: purchased Ambit Biosciences (KINOMEscan)
# Excerpt: as §1
# [4] = target: T4, CHEK2 (Homo sapiens, UniProt O96017); conditions: compound concentration 10 uM, read-out: Percent Competition
# T4 construct: purchased Ambit Biosciences (KINOMEscan)
# Excerpt: as §1
# [5] = target: T5, EPHA5 (Homo sapiens, UniProt P54756); conditions: compound concentration 10 uM
# T5 construct: purchased Ambit Biosciences (KINOMEscan)
# Excerpt: as §1
# [6] = target: T6, FGFR3 (Homo sapiens, UniProt P22607); conditions: compound concentration 10 uM, read-out: Percent Competition
# T6 construct: purchased Ambit Biosciences (KINOMEscan)
# Excerpt: as §1
# [7] = target: T7, FLT3(D835H) (Homo sapiens, UniProt P36888, D835H); conditions: compound concentration 10 uM, read-out: Percent Competition
# T7 construct: purchased Ambit Biosciences (KINOMEscan)
# Excerpt: as §1
# [8] = target: T8, IGF1R (Homo sapiens, UniProt P08069); conditions: compound concentration 10 uM, read-out: Percent Competition
# T8 construct: purchased Ambit Biosciences (KINOMEscan)
# Excerpt: as §1
# [9] = target: T9, ITK (Homo sapiens, UniProt Q08881); conditions: compound concentration 10 uM
# T9 construct: purchased Ambit Biosciences (KINOMEscan)
# Excerpt: as §1
# [10] = target: T10, LIMK2 (Homo sapiens, UniProt P53671); conditions: compound concentration 10 uM, read-out: Percent Competition
# T10 construct: purchased Ambit Biosciences (KINOMEscan)
# Excerpt: as §1
# [11] = target: T11, MAP4K2 (Homo sapiens, UniProt Q12851); conditions: compound concentration 10 uM, read-out: Percent Competition
# T11 construct: purchased Ambit Biosciences (KINOMEscan)
# Excerpt: as §1
# [12] = target: T12, MAP4K3 (Homo sapiens, UniProt Q8IVH8); conditions: compound concentration 10 uM
# T12 construct: purchased Ambit Biosciences (KINOMEscan)
# Excerpt: as §1
# [13] = target: T13, MARK1 (Homo sapiens, UniProt Q9P0L2); conditions: compound concentration 10 uM, read-out: Percent Competition
# T13 construct: purchased Ambit Biosciences (KINOMEscan)
# Excerpt: as §1
# [14] = target: T14, MLK1 (Homo sapiens, UniProt P80192); conditions: compound concentration 10 uM, read-out: Percent Competition
# T14 construct: purchased Ambit Biosciences (KINOMEscan)
# Excerpt: as §1
# [15] = target: T15, NEK7 (Homo sapiens, UniProt Q8TDX7); conditions: compound concentration 10 uM, read-out: Percent Competition
# T15 construct: purchased Ambit Biosciences (KINOMEscan)
# Excerpt: as §1
# [16] = target: T16, PIK3C2B (Homo sapiens, UniProt O00750); conditions: compound concentration 10 uM, read-out: Percent Competition
# T16 construct: purchased Ambit Biosciences (KINOMEscan)
# Excerpt: as §1
# [17] = target: T17, PIM1 (Homo sapiens, UniProt P11309); conditions: compound concentration 10 uM, read-out: Percent Competition
# T17 construct: purchased Ambit Biosciences (KINOMEscan)
# Excerpt: as §1
# [18] = target: T18, RIOK1 (Homo sapiens, UniProt Q9BRS2); conditions: compound concentration 10 uM, read-out: Percent Competition
# T18 construct: purchased Ambit Biosciences (KINOMEscan)
# Excerpt: as §1
# [19] = target: T19, RPS6KA4(Kin.Dom.2-C-terminal) (Homo sapiens, UniProt O75676); conditions: compound concentration 10 uM, read-out: Percent Competition
# T19 construct: RPS6KA4(Kin.Dom.2-C-terminal); purchased Ambit Biosciences (KINOMEscan)
# Excerpt: as §1
# [20] = target: T20, SRPK2 (Homo sapiens, UniProt P78362); conditions: compound concentration 10 uM, read-out: Percent Competition
# T20 construct: purchased Ambit Biosciences (KINOMEscan)
# Excerpt: as §1
# [21] = target: T21, TSSK1B (Homo sapiens, UniProt Q9BXA7); conditions: compound concentration 10 uM, read-out: Percent Competition
# T21 construct: purchased Ambit Biosciences (KINOMEscan)
# Excerpt: as §1
# [22] = target: T22, TXK (Homo sapiens, UniProt P42681); conditions: compound concentration 10 uM, read-out: Percent Competition
# T22 construct: purchased Ambit Biosciences (KINOMEscan)
# Excerpt: as §1
# [23] = target: T23, TYRO3 (Homo sapiens, UniProt Q06418); conditions: compound concentration 10 uM, read-out: Percent Competition
# T23 construct: purchased Ambit Biosciences (KINOMEscan)
# Excerpt: as §1
# [24] = target: T24, WEE1 (Homo sapiens, UniProt P30291); conditions: compound concentration 10 uM, read-out: Percent Competition
# T24 construct: purchased Ambit Biosciences (KINOMEscan)
# Excerpt: as §1
compound,measurement,setting,value
Fc1ccc(-c2c(-c3ccncc3)[nH]c3nccnc23)cc1 [RO1155697-000-005],inhibition at 10 µM,[1],< 50%
same,inhibition at 10 µM,[2],< 50%
same,inhibition at 10 µM,[3],< 50%
same,inhibition at 10 µM,[4],< 50%
same,Percent Competition,[5],<50%
same,inhibition at 10 µM,[6],< 50%
same,inhibition at 10 µM,[7],< 50%
same,inhibition at 10 µM,[8],< 50%
same,Percent Competition,[9],<50%
same,inhibition at 10 µM,[10],< 50%
same,inhibition at 10 µM,[11],< 50%
same,Percent Competition,[12],<50%
same,inhibition at 10 µM,[13],< 50%
same,inhibition at 10 µM,[14],< 50%
same,inhibition at 10 µM,[15],< 50%
same,inhibition at 10 µM,[16],< 50%
same,inhibition at 10 µM,[17],< 50%
same,inhibition at 10 µM,[18],< 50%
same,inhibition at 10 µM,[19],< 50%
same,inhibition at 10 µM,[20],< 50%
same,inhibition at 10 µM,[21],< 50%
same,inhibition at 10 µM,[22],< 50%
same,inhibition at 10 µM,[23],< 50%
same,inhibition at 10 µM,[24],< 50%
